Results from ChEMBL document CHEMBL1132989, “A novel macromolecular prodrug concept exploiting endogenous serum albumin as a drug carrier for cancer chemotherapy” (2000).

Assay: Dose required for antitumor efficacy tested in vivo against primary kidney tumors in murine renal carcinoma (RENCA)
Format: functional, Mus musculus

COc1cccc2c1C(=O)c1c(O)c3c(c(O)c1C2=O)C[C@@](O)(/C(CO)=N/NC(=O)Cc1ccc(N2C(=O)C=CC2=O)cc1)C[C@@H]3OC1CC(C)C(O)C(N)C1.Cl (stereo partly specified)
Dose: 80 mM/kg
